The values below come from publication PMC4828318 (Journal of enzyme inhibition and medicinal chemistry, 2015).

One test has as its target DNMT3B/3L (Homo sapiens, UniProt Q9UBC3). Briefly: In vitro DNMT inhibition, radiometric filter-paper assay, DNMT3B/3L. Format: biochemical.
The next test has as its system HepG2 cells. Briefly: MTT cell proliferation assay, HepG2. To be noted: Homo sapiens, HepG2, 24 h, read-out: IC50 (μM) HepG2. Format: cell-based.
In a further test the test system is HT-29 cells. Briefly: MTT cell proliferation assay, HT-29. Type of test: cell-based. Conditions: Homo sapiens, HT-29, 24 h, read-out: IC50 (μM) HT-29.
The target in another test is DNMT3A/3L (Homo sapiens, UniProt Q9Y6K1). Put plainly: In vitro DNMT inhibition, radiometric filter-paper assay, DNMT3A/3L. Format: biochemical.
The target of test [1] is DNMT1 (Homo sapiens, UniProt P26358). Briefly: In vitro DNMT inhibition, radiometric filter-paper assay, DNMT1. Format: biochemical.
DNMT1 (Homo sapiens, UniProt P26358), sequence (P26358 whole entry): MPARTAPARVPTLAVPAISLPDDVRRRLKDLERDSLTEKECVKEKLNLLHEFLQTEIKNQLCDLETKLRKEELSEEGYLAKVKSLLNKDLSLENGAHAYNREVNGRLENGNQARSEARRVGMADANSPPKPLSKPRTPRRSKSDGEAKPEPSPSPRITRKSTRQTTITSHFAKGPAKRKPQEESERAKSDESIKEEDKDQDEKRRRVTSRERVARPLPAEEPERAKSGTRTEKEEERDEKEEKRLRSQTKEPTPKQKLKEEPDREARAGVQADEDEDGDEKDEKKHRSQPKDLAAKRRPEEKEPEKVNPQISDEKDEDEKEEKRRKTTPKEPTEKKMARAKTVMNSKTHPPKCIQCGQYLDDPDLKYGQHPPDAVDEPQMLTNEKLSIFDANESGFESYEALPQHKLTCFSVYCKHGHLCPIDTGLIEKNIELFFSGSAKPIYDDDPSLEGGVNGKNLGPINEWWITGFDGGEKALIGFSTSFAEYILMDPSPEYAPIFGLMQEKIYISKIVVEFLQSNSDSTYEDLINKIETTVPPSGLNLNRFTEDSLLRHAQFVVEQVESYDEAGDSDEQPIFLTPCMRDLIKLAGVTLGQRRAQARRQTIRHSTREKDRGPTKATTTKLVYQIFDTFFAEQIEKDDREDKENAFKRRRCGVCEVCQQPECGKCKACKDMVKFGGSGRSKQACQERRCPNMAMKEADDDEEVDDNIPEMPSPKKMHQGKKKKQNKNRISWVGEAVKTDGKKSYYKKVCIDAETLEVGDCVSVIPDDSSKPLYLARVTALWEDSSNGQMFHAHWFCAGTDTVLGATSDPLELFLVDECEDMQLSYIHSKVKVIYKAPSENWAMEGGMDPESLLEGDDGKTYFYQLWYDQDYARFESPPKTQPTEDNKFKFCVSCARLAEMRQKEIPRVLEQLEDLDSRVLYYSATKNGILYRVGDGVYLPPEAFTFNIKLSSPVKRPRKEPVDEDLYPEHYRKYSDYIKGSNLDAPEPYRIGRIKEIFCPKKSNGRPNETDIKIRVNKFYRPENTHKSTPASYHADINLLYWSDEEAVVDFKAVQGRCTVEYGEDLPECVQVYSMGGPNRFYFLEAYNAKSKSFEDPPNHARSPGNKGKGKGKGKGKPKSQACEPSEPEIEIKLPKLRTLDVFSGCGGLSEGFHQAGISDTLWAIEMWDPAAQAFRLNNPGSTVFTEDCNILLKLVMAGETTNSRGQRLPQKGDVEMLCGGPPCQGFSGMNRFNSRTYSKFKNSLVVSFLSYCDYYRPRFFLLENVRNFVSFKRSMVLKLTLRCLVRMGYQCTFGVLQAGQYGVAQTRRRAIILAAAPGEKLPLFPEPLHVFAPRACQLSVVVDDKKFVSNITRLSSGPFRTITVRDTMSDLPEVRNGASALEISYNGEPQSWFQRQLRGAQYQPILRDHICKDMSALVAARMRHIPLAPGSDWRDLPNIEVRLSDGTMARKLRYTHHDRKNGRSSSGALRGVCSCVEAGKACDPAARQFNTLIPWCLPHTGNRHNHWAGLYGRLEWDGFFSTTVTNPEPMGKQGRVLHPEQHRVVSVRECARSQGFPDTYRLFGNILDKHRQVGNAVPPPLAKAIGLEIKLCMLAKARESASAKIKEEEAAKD
Test [2] concerns DNMT1. To be noted: rats, 21-week treatment period; protein expression ref 39; cited from earlier work.
A further test deals with DNMT3B. To be noted: rats, 21-week treatment period; protein expression ref 39; cited from earlier work.

Read-outs that look alike come from different tables or passages of the source.

As to `COc1ccc(/C=C/c2cc(OC)cc(OC)c2)cc1` [TMS, 3,4′,5-trans-trimethoxystilbene], the IC50 was greater than 300 µM against DNMT3B/3L; greater than 100 µM in the test with HepG2 cells; 14 µM with HT-29 cells; greater than 300 µM on DNMT3A/3L; greater than 300 µM on DNMT1 [1] (read-out: IC50 (μM) DNMT1, cell-free biochemical assay, NI = no inhibition at the maximum test compound concentration (300 μM)). The “inhibition of DNMT3B at the highest test compound concentration” value on DNMT3B/3L (300 μM) is reported as “no significant inhibition”. Further, at DNMT3A/3L (300 μM), the “inhibition of DNMT3A at the highest test compound concentration” value is listed as “no significant inhibition”. In addition, the “inhibition of DNMT1 at the highest test compound concentration” value at DNMT1 [1] (300 μM) is reported as “no significant inhibition”.
In the case of `Oc1ccc(/C=C/c2cc(O)cc(O)c2)cc1` [Resveratrol, 3,4′,5-trans-trihydroxystilbene], the “expression of the DNMT1 enzyme” value with DNMT1 [2] is recorded as “did not significantly reduce”. The IC50 against DNMT3B/3L was 65 µM; with HepG2 cells it was 54.9 µM; with HT-29 cells, 130 µM; against DNMT3A/3L, 105 µM; at DNMT1 [1] it was greater than 300 µM. Further, the “expression of DNMT3B” value in the test on DNMT3B is on record as “significant reduction”.
